Data reported in patent publication US20250177396A1, “POLO-LIKE KINASE 4 (PLK4) INHIBITORS, PHARMACEUTICAL COMPOSITIONS, METHODS OF PREPARATION AND USES THEREOF” (Repare Therapeutics Inc., priority 2022, published 2025).

Biological target: T1, PLK4 (Homo sapiens, UniProt O00444)
T1 construct: expressed in transfected cells; host or cells: HEK293 T cells (ATCC CRL-3216)
T1 sequence (O00444 1-970): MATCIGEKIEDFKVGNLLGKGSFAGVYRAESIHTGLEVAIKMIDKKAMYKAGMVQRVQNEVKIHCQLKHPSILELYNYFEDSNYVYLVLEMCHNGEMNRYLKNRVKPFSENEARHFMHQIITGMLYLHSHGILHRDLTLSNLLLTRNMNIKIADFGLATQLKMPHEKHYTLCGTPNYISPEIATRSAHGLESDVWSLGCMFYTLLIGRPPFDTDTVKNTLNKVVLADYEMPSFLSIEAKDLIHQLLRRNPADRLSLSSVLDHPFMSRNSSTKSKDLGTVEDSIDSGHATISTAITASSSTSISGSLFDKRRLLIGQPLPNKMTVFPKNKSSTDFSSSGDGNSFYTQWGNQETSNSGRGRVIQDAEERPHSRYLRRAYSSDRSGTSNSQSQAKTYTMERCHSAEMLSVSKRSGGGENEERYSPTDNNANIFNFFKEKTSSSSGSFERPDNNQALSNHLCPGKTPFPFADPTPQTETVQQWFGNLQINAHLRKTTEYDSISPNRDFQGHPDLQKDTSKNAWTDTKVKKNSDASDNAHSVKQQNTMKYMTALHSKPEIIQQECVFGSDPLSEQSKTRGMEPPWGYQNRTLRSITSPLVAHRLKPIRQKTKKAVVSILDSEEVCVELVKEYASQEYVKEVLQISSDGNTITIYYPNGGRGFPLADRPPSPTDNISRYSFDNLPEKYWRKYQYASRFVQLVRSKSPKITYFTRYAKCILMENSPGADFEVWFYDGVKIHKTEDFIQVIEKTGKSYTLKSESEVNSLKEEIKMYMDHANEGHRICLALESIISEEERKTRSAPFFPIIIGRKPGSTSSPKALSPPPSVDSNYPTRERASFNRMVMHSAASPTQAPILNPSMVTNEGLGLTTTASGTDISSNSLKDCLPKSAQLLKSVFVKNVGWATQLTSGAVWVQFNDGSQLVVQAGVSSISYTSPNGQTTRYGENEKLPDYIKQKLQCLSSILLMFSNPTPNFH
Experiment: PLK4 NanoBRET target engagement assay
Type: binding
Details: HEK293 T cells transfected with PLK4 NanoLuc fusion vector; K-5 tracer; 2 hrs incubation
Method: To determine the affinity of Compounds described herein in the PLK4 NanoBRET target engagement assay, HEK293 T cells (ATCC Product Number CRL-3216) are first transfected with the PLK4 NanoLuc fusion vector DNA and Transfection carrier DNA using the Fugene HD Transfection reagent in Opti-MEM No Phenol Red buffer. After an overnight incubation in a 37° C./5% CO2 incubator, the transfected HEK293 T cells are trypsinized, counted, and resuspended in Opti-MEM No Phenol Red buffer at a concentration of 200000 cells/mL. White 96-well plates are then plated with 85 μL of cells (17000 cells/well) to which 5 μL of the 20×K-5 tracer solution diluted in tracer dilution buffer is added. Finally, 10 μL of the 10× compounds are added and the plates and then incubated in a 37° C./5% CO2 incubator for 2 hrs. After the incubation, a 50 uL 3× solution of the substrate/inhibitor mix is added to the cells. The plate is then transferred in the Envision plate reader where the Acceptor emission (610 nm) and the Donor emission (450 nm) are measured.
The IC50 of compounds is determined as follows: • 1. The ratio between the Acceptor emission (610 nm)/Donor emission (450 nm) is calculated. • 2. This ratio is then multiplied by 1000 to obtain the mBRET units (multiplying by 1000 is an arbitrary step that simply makes the data easier to interpret; it has no impact on the data set itself) • 3. The mBRET units are then used in Scigilian Analyze software (https://analyze.scigilian.io) to determine the IC50 value using a 4-parameter fit analysis.

Compound	IC50 [nM]
COC(=O)CN(c1nc(Nc2cc(C)[nH]n2)c(OC)c(-c2cnn(C)c2)n1)c1ccc(S(C)(=O)=O)cc1F [Compound 90]	370
COc1c(Nc2cc(C)[nH]n2)nc(N(CC(=O)O)c2ccc(S(C)(=O)=O)cc2F)nc1-c1cnn(C)c1 [Compound 91]	5400
Cc1cc(Nc2nc(N(C)c3c(F)cc(S(C)(=O)=O)cc3F)cc(-c3cnn(C)c3)c2C2CC2)n[nH]1 [Compound 92]	53
Cc1cc(Nc2nc(N(C)c3ccc(S(C)(=O)=O)cc3F)cc(-c3cnn(C)c3)c2C2CC2)n[nH]1 [Compound 93]	78
Cc1cc(Nc2nc(Sc3ccc(S(C)(=O)=O)cc3F)cc(-c3cnn(C)c3)c2C2CC2)n[nH]1 [Compound 94]	110
COc1c(Nc2cc(C)[nH]n2)nc(Sc2ccc(S(C)(=O)=O)cc2F)c(F)c1-c1cnn(C)c1 [Compound 95]	170
COc1c(Nc2cc(C)[nH]n2)nc(Nc2ccc(S(C)(=O)=O)cc2C)c(C)c1-c1cnn(C)c1 [Compound 96]	670
COc1c(Nc2cc(C)[nH]n2)nc(Sc2ccc(S(C)(=O)=O)cc2F)c(N(C)C)c1-c1cnn(C)c1 [Compound 97]	1200
COc1c(Nc2cc(C)[nH]n2)nc(N(C)c2ccc(S(C)(=O)=O)cc2F)c(C#N)c1-c1cnn(C)c1 [Compound 98]	2000
COc1c(Nc2cc(C)[nH]n2)nc(N(C)c2ccc(S(C)(=O)=O)cc2F)c(C)c1-c1cnn(C)c1 [Compound 99]	4800
COc1c(Nc2cc(C)[nH]n2)nc(Sc2ccc(S(C)(=O)=O)cc2F)c(Cl)c1-c1cnn(C)c1 [Compound 100]	240
COc1c(Nc2cc(C)[nH]n2)nc(Sc2ccc(S(C)(=O)=O)cc2F)c(C#N)c1-c1cnn(C)c1 [Compound 101]	120
COc1c(Nc2cc(C)[nH]n2)nc(Sc2ccc(S(C)(=O)=O)cc2F)c(N)c1-c1cnn(C)c1 [Compound 102]	840
Cc1cc(Nc2nc(N(C)c3ccc(S(C)(=O)=O)cc3F)nc(-n3cncn3)c2C2CC2)n[nH]1 [Compound 105]	740
Cc1cn(-c2nc(N(C)c3ccc(S(C)(=O)=O)cc3F)nc(Nc3cc(C)[nH]n3)c2C2CC2)cn1 [Compound 107]	120
Cc1cc(Nc2nc(N(C)c3ccc(S(C)(=O)=O)cc3F)nc(-c3cnn(C)n3)c2C2CC2)n[nH]1 [Compound 109]	49
Cc1cc(Nc2nc(N(C)c3ccc(S(C)(=O)=O)cc3F)nc(N3CCOc4ccncc43)c2C2CC2)n[nH]1 [Compound 110, 5-cyclopropyl-6-(2,3-dihydro-4H-pyrido[4,3-b][1,4]oxazin-4-yl)-N^2-(2-fluoro-4-(methylsulfonyl)phenyl)-N^2-methyl-N^4-(5-methyl-1H-pyrazol-3-yl)pyrimidine-2,4-diamine]	160
Cc1cc(Nc2nc(N(C)c3ccc(S(C)(=O)=O)cc3F)nc(N3CCCC(S(C)(=O)=O)C3)c2C2CC2)n[nH]1 (stereo not drawn) [Compound 111, 5-cyclopropyl-N^2-(2-fluoro-4-(methylsulfonyl)phenyl)-N^2-methyl-N^4-(5-methyl-1H-pyrazol-3-yl)-6-(3-(methylsulfonyl)piperidin-1-yl)pyrimidine-2,4-diamine]	43
Cc1cnn(-c2nc(N(C)c3ccc(S(C)(=O)=O)cc3F)nc(Nc3cc(C)[nH]n3)c2C2CC2)c1 [Compound 112]	110
Cc1ccn(-c2nc(N(C)c3ccc(S(C)(=O)=O)cc3F)nc(Nc3cc(C)[nH]n3)c2C2CC2)n1 [Compound 113]	150
COc1c(Nc2cc(C)[nH]n2)nc(N(C)c2cc(Cl)c(S(C)(=O)=O)cc2F)nc1-c1cnn(C)c1 [Compound 116]	68
COc1c(Nc2cc(C)[nH]n2)nc(N(C)c2ccc(S(C)(=O)=O)c(Cl)c2F)nc1-c1cnn(C)c1 [Compound 117]	220
Cc1cc(Nc2nc(N(C)c3c(F)cc(S(C)(=O)=O)cc3Cl)nc(-c3cnn(C)c3)c2C2CC2)n[nH]1 [Compound 118]	> 5000
Cc1cc(Nc2nc(N(C)c3c(F)cc(S(C)(=O)=O)cc3F)nc(-c3c(C)ncn3C)c2C2CC2)n[nH]1 [Compound 129]	57
Cc1cc(-c2nc(N(C)c3c(F)cc(S(C)(=O)=O)cc3F)nc(Nc3cc(C)[nH]n3)c2C2CC2)cnn1 [Compound 130]	24

Stronger by IC50, values ahead:

IC50 [nM]	Compound
9	Cc1cc(Nc2nc(N(C)c3c(F)cc(S(C)(=O)=O)cc3F)nc(-c3c[nH]cn3)c2C2CC2)n[nH]1 [Compound 103]
15	Cc1cc(Nc2nc(N(C)c3c(F)cc(S(C)(=O)=O)cc3F)nc(-c3cnn(C)n3)c2C2CC2)n[nH]1 [Compound 104]
6	Cc1cc(Nc2nc(N(C)c3c(F)cc(S(C)(=O)=O)cc3F)nc(-c3cc[nH]n3)c2C2CC2)n[nH]1 [Compound 106]
16	Cc1cc(Nc2nc(N(C)c3ccc(S(C)(=O)=O)cc3F)nc(-c3cnn4cccnc34)c2C2CC2)n[nH]1 [Compound 108, 5-cyclopropyl-N^2-(2-fluoro-4-(methylsulfonyl)phenyl)-N^2-methyl-N^4-(5-methyl-1H-pyrazol-3-yl)-6-(pyrazolo[1,5-a]pyrimidin-3-yl)pyrimidine-2,4-diamine]
10	Cc1cc(Nc2nc(N(C)c3c(F)cc(S(C)(=O)=O)c(C)c3F)nc(-c3cnn(C)c3)c2C2CC2)n[nH]1 [Compound 114]
22	Cc1cc(Nc2nc(N(C)c3c(F)cc(S(C)(=O)=O)cc3F)nc(-c3cn(C)nc3C#N)c2C2CC2)n[nH]1 [Compound 115]
19	Cc1cc(Nc2nc(N(C)c3c(F)cc(S(C)(=O)=O)c(Cl)c3F)nc(-c3cnn(C)c3)c2C2CC2)n[nH]1 [Compound 120]
8	Cc1cc(Nc2nc(N(C)c3c(F)cc(S(C)(=O)=O)cc3F)nc(-c3c[nH]nc3C)c2C2CC2)n[nH]1 [Compound 122]
2	Cc1cc(Nc2nc(N(C)c3c(F)cc(S(C)(=O)=O)cc3F)nc(-c3cn(C)c(C)n3)c2C2CC2)n[nH]1 [Compound 124]
7	Cc1cc(Nc2nc(N(C)c3cc(F)c(S(C)(=O)=O)cc3F)nc(-c3cn(C)cn3)c2C2CC2)n[nH]1 [Compound 125, 5-cyclopropyl-N^2-(2,5-difluoro-4-(methylsulfonyl)phenyl)-N^2-methyl-6-(1-methyl-1H-imidazol-4-yl)-N^4-(5-methyl-1H-pyrazol-3-yl)pyrimidine-2,4-diamine]
5	Cc1cc(Nc2nc(N(C)c3c(F)cc(S(C)(=O)=O)cc3F)nc(-c3cnn(C4CC4)c3)c2C2CC2)n[nH]1 [Compound 126]
6	Cc1cc(Nc2nc(N(C)c3c(F)cc(S(C)(=O)=O)cc3F)nc(-c3cnn(CF)c3)c2C2CC2)n[nH]1 [Compound 127]
6	Cc1cc(Nc2nc(N(C)c3c(F)cc(S(C)(=O)=O)cc3F)nc(-c3cn(C(F)F)cn3)c2C2CC2)n[nH]1 [Compound 128]
9	Cc1cc(Nc2nc(N(C)c3c(F)cc(S(C)(=O)=O)cc3F)nc(-c3cnn(C(F)F)c3)c2C2CC2)n[nH]1 [Compound 131]
18	Cc1cc(Nc2nc(N(C)c3cc(F)c(S(C)(=O)=O)cc3F)nc(-c3ccn(C)n3)c2C2CC2)n[nH]1 [Compound 133]
7	Cc1cc(Nc2nc(N(C)c3c(F)cc(S(C)(=O)=O)cc3F)nc(-c3cncn3C)c2C2CC2)n[nH]1 [Compound 134]
18	Cc1cc(Nc2nc(N(C)c3c(F)cc(S(C)(=O)=O)cc3F)nc(-c3ccncn3)c2C2CC2)n[nH]1 [Compound 135]
